Test results: patent publication US20200369630A1, “HERBICIDALLY ACTIVE 3-PHENYL-5-TRIFLUOROMETHYLISOXAZOLINE-5-CARBOXAMIDES OF CYCLOPENTYLCARBOXYLIC ACIDS AND ESTERS” (Bayer Aktiengesellschaft, priority 2017, published 2020)

Experiments:
Format in all cases: in vivo
VERPE: Veronica persica [1] = test: Pre-emergence herbicidal action
Excerpt: (§1) Seeds of monocotyledonous and dicotyledonous weed plants and crop plants are placed in plastic or wood fiber pots and covered with soil. The compounds of the invention, formulated in the form of wettable powders (WP) or as emulsion concentrates (EC), are then applied onto the surface of the covering soil as aqueous suspension or emulsion with addition of 0.5% additive at a water application rate of […] (converted). After the treatment, the pots are placed in a greenhouse and kept under good growth conditions for the trial plants. After about 3 weeks, the effect of the preparations is scored visually in comparison with untreated controls as percentages. For example, 100% activity=the plants have died, 0% activity=like control plants. [table]

[2] = system: AMARE: Amaranthus retroflexus; test: Pre-emergence herbicidal action
Excerpt: as §1

SETVI: Setaria viridis [3] = test: Pre-emergence herbicidal action
Excerpt: as §1

VIOTR: Viola tricolor [4] = test: Pre-emergence herbicidal action
Excerpt: as §1

[5] = system: ALOMY: Alopecurus myosuroides; test: Pre-emergence herbicidal action
Excerpt: as §1

STEME: Stellaria media [6] = test: Pre-emergence herbicidal action
Excerpt: as §1

AVEFA: Avena fatua [7] = test: Pre-emergence herbicidal action
Excerpt: as §1

[8] = system: ABUTH: Abutilon theophrasti; test: Post-emergence herbicidal action; details: Second Table C3, superiority with respect to WO 2012/130798, post-emergence, 80 g/ha
Experimental: (§2) [table] Seeds of monocotyledonous and dicotyledonous weeds and crop plants are placed in sandy loam in plastic or wood-fiber pots, covered with soil and cultivated in a greenhouse under controlled growth conditions. 2 to 3 weeks after sowing, the test plants are treated at the one-leaf stage. The compounds of the invention, formulated in the form of wettable powders (WP) or as emulsion concentrates (EC), are then sprayed onto the green parts of the plants as aqueous suspension or emulsion with addition of 0.5% additive at a water application rate of […] (converted). After the test plants had been kept in the greenhouse under optimum growth conditions for about 3 weeks, the activity of the preparations is rated visually in comparison to untreated controls. For example, 100% activity=the plants have died, 0% activity=like control plants.

STEME: Stellaria media [9] = test: Post-emergence herbicidal action
Experimental: as §2

DIGSA = test: Post-emergence herbicidal action; details: Table C3, post-emergence, 320 g/ha, rated visually after about 3 weeks
Experimental: as §2, with “Seeds” for “[table] Seeds”

VERPE: Veronica persica [10] = test: Post-emergence herbicidal action; details: rated visually after about 3 weeks
Experimental: as §2

[11] = system: AMARE: Amaranthus retroflexus; test: Post-emergence herbicidal action; details: rated visually after about 3 weeks
Experimental: as §2

SETVI: Setaria viridis [12] = test: Post-emergence herbicidal action; details: Table C3, post-emergence, 320 g/ha, rated visually after about 3 weeks
Experimental: as §2

VIOTR: Viola tricolor [13] = test: Post-emergence herbicidal action; details: Table C3, post-emergence, 320 g/ha, rated visually after about 3 weeks
Experimental: as §2

LOLRI: Lolium rigidum [14] = test: Post-emergence herbicidal action; details: rated visually after about 3 weeks
Experimental: as §2

HORMU: Hordeum murinum [15] = test: Post-emergence herbicidal action; details: rated visually after about 3 weeks
Experimental: as §2

[16] = system: ALOMY: Alopecurus myosuroides; test: Post-emergence herbicidal action; details: rated visually after about 3 weeks
Experimental: as §2

[17] = system: POLCO: Polygonum convolvulus; test: Post-emergence herbicidal action; details: rated visually after about 3 weeks
Experimental: as §2

[18] = system: ECHCG: Echinochloa crus-galli; test: Post-emergence herbicidal action; details: rated visually after about 3 weeks
Experimental: as §2

AVEFA: Avena fatua [19] = test: Post-emergence herbicidal action; details: rated visually after about 3 weeks
Experimental: as §2

[20] = system: MATIN: Matricaria inodora; test: Pre-emergence herbicidal action; details: Table C1, pre-emergence, 80 g/ha, scored visually after about 3 weeks
Excerpt: as §1

LOLRI: Lolium rigidum [21] = test: Pre-emergence herbicidal action; details: Table C1, pre-emergence, 80 g/ha, scored visually after about 3 weeks
Excerpt: as §1

HORMU: Hordeum murinum [22] = test: Pre-emergence herbicidal action; details: Table C1, pre-emergence, 80 g/ha, scored visually after about 3 weeks
Excerpt: as §1

PHBPU: Ipomoea purpurea = test: Pre-emergence herbicidal action; details: Table C1, pre-emergence, 80 g/ha, scored visually after about 3 weeks
Excerpt: as §1

[23] = system: ABUTH: Abutilon theophrasti; test: Pre-emergence herbicidal action; details: Table C1, pre-emergence, 80 g/ha, scored visually after about 3 weeks
Excerpt: as §1

[24] = system: ECHCG: Echinochloa crus-galli; test: Pre-emergence herbicidal action; details: Table C1, pre-emergence, 80 g/ha, scored visually after about 3 weeks
Excerpt: as §1

[25] = system: POLCO: Polygonum convolvulus; test: Pre-emergence herbicidal action; details: Table C1, pre-emergence, 80 g/ha, scored visually after about 3 weeks
Excerpt: as §1

[26] = Second Table C4, superiority with respect to WO 2012/130798, pre-emergence, 20 g/ha
[27] = Table C3, post-emergence, 320 g/ha
[28] = Table C1, pre-emergence, 80 g/ha, scored visually after about 3 weeks
[29] = Table C2, post-emergence, dosage 320 (0.32 kg of active substance per hectare)
[30] = Table C2, post-emergence, dosage 320 (0.32 kg of active substance per hectare), rated visually after about 3 weeks
[31] = Table C4, post-emergence, 320 g/ha

SMILES | Herbicidal action against [%] DIGSA (DIGSA) | Herbicidal action against [%] VERPE (VERPE: Veronica persica [10]; [27]) | Herbicidal action against [%] AMARE [11, 27] | Herbicidal action against [%] SETVI (SETVI: Setaria viridis [12]) | Herbicidal action against [%] VIOTR (VIOTR: Viola tricolor [13]) | Herbicidal action against [%] LOLRI (LOLRI: Lolium rigidum [14]; [27]) | Herbicidal action against [%] HORMU (HORMU: Hordeum murinum [15]; [27]) | Herbicidal action against [%] ALOMY [16, 27] | Herbicidal action against [%] POLCO [17, 27] | Herbicidal action against [%] ECHCG [18, 27] | Herbicidal action against [%] AVEFA (AVEFA: Avena fatua [19]; [27]) | Herbicidal action against [%] VERPE (VERPE: Veronica persica [10]; [29]) | Herbicidal action against [%] AMARE [11, 29] | Herbicidal action against [%] LOLRI (LOLRI: Lolium rigidum [14]; [29]) | Herbicidal action against [%] HORMU (HORMU: Hordeum murinum [15]; [29]) | Herbicidal action against [%] ALOMY [16, 29] | Herbicidal action against [%] POLCO [17, 29] | Herbicidal action against [%] STEME (STEME: Stellaria media [9]; [30]) | Herbicidal action against [%] ECHCG [18, 29] | Herbicidal action against [%] AVEFA (AVEFA: Avena fatua [19]; [29]) | other results
CCOC(=O)C1CCC(NC(=O)C2(C)CC(c3cc(F)cc(F)c3)=NO2)C1 (centres unmarked) [Example 6.736, reference compound] | – | – | – | – | – | – | – | – | – | – | – | – | – | – | – | – | – | – | – | – | Herbicidal action against [%] VERPE (VERPE: Veronica persica [1]; [26]): 70%; Herbicidal action against [%] AMARE [2, 26]: 0%; Herbicidal action against [%] SETVI (SETVI: Setaria viridis [3]; [26]): 20%; Herbicidal action against [%] VIOTR (VIOTR: Viola tricolor [4]; [26]): 0%; Herbicidal action against [%] ALOMY [5, 26]: 70%; Herbicidal action against [%] STEME (STEME: Stellaria media [6]; [26]): 50%; Herbicidal action against [%] AVEFA (AVEFA: Avena fatua [7]; [26]): 50%; Herbicidal action against [%] ABUTH [8]: 60%; Herbicidal action against [%] STEME (STEME: Stellaria media [9]; Second Table C3, superiority with respect to WO 2012/130798, post-emergence, 80 g/ha): 50%
Cc1cc(F)cc(C2=NOC(C(=O)NC3CCC(C(=O)OCCCl)C3)(C(F)(F)F)C2)c1 (mixture of isomers) [Example I-574] | 80% | 90% | 100% | 90% | 80% | 90% | 80% | 100% | 80% | 90% | 100% | – | – | – | – | – | – | – | – | – | –
Cc1cc(F)cc(C2=NOC(C(=O)NC3CCC(C(=O)OCC(F)(F)F)C3)(C(F)(F)F)C2)c1 (mixture of isomers) [Example I-580] | 90% | 90% | 90% | 90% | 100% | 90% | 90% | 90% | 80% | 80% | 100% | – | – | – | – | – | – | – | – | – | –
COC(=O)C1CCC(NC(=O)C2(C(F)(F)F)CC(c3cc(C)cc(F)c3)=NO2)C1 (mixture of isomers) [Example I-537] | 90% | 100% | 100% | 90% | 100% | 90% | 80% | 90% | 90% | 100% | 90% | – | – | – | – | – | – | – | – | – | –
CCOC(=O)C1CCC(NC(=O)C2(C(F)(F)F)CC(c3cc(C)cc(Cl)c3)=NO2)C1 (mixture of isomers) [Example I-808] | 90% | 90% | 80% | 90% | 80% | 90% | 90% | 90% | 100% | 80% | 90% | – | – | – | – | – | – | – | – | – | –
O=C(OCCCl)C1CCC(NC(=O)C2(C(F)(F)F)CC(c3cc(F)cc(F)c3)=NO2)C1 (mixture of isomers) [Example I-99] | – | – | – | – | – | – | – | – | – | – | – | 90% | 90% | 100% | 90% | 90% | 80% | 90% | 90% | 90% | Herbicidal action against [%] VERPE (VERPE: Veronica persica [1]; [28]): 100%; Herbicidal action against [%] AMARE [2, 28]: 100%; Herbicidal action against [%] SETVI (SETVI: Setaria viridis [3]; [28]): 100%; Herbicidal action against [%] MATIN [20]: 80%; Herbicidal action against [%] VIOTR (VIOTR: Viola tricolor [4]; [28]): 100%; Herbicidal action against [%] LOLRI (LOLRI: Lolium rigidum [21]): 100%; Herbicidal action against [%] HORMU (HORMU: Hordeum murinum [22]): 100%; Herbicidal action against [%] ALOMY [5, 28]: 100%; Herbicidal action against [%] PHBPU (PHBPU: Ipomoea purpurea): 90%; Herbicidal action against [%] ABUTH [23]: 80%; Herbicidal action against [%] STEME (STEME: Stellaria media [6]; [28]): 100%; Herbicidal action against [%] ECHCG [24]: 90%; Herbicidal action against [%] AVEFA (AVEFA: Avena fatua [7]; [28]): 90%
O=C(OCC(F)(F)F)C1CCC(NC(=O)C2(C(F)(F)F)CC(c3cccc(F)c3)=NO2)C1 (mixture of isomers) [Example I-423] | – | – | – | – | – | – | – | – | – | – | – | 90% | 90% | 100% | 100% | 100% | 90% | 100% | 100% | 100% | –
CCOC(=O)[C@@H]1CC[C@H](NC(=O)[C@@]2(C(F)(F)F)CC(c3cc(F)cc(F)c3)=NO2)C1 [Example I-39, ethyl (1R,3S)-3-({[(5R)-3-(3,5-difluorophenyl)-5-(trifluoromethyl)-4,5-dihydro-1,2-oxazol-5-yl]carbonyl}amino)cyclopentanecarboxylate] | – | – | – | – | – | – | – | – | – | – | – | – | – | – | – | – | – | – | – | – | Herbicidal action against [%] AMARE [2, 28]: 100%; Herbicidal action against [%] SETVI (SETVI: Setaria viridis [3]; [28]): 100%; Herbicidal action against [%] MATIN [20]: 90%; Herbicidal action against [%] VIOTR (VIOTR: Viola tricolor [4]; [28]): 100%; Herbicidal action against [%] LOLRI (LOLRI: Lolium rigidum [21]): 100%; Herbicidal action against [%] HORMU (HORMU: Hordeum murinum [22]): 90%; Herbicidal action against [%] ALOMY [5, 28]: 100%; Herbicidal action against [%] PHBPU (PHBPU: Ipomoea purpurea): 80%; Herbicidal action against [%] POLCO [25]: 100%; Herbicidal action against [%] ABUTH [23]: 70%; Herbicidal action against [%] ECHCG [24]: 100%; Herbicidal action against [%] AVEFA (AVEFA: Avena fatua [7]; [28]): 100%; Herbicidal action against [%] AMARE [11, 31]: 80%; Herbicidal action against [%] LOLRI (LOLRI: Lolium rigidum [14]; [31]): 90%; Herbicidal action against [%] HORMU (HORMU: Hordeum murinum [15]; [31]): 100%; Herbicidal action against [%] ALOMY [16, 31]: 100%; Herbicidal action against [%] POLCO [17, 31]: 80%
CC(C)OC(=O)[C@@H]1CC[C@H](NC(=O)[C@@]2(C(F)(F)F)CC(c3cc(F)cc(F)c3)=NO2)C1 [Example I-67] | – | – | – | – | – | – | – | – | – | – | – | 90% | 90% | 100% | 100% | 100% | 90% | 100% | 90% | 100% | –
CCCOC(=O)[C@@H]1CC[C@H](NC(=O)[C@@]2(C(F)(F)F)CC(c3cc(F)cc(F)c3)=NO2)C1 [Example I-53] | – | – | – | – | – | – | – | – | – | – | – | 90% | 90% | 100% | 100% | 100% | 100% | 100% | 100% | 100% | –
